Results as given in US6596477B1, “Treatment and prevention of immunodeficiency virus infection by administration of non-pyrogenic derivatives of lipid A” (University of Maryland Biotechnology Institute, priority 1998, dated 2003).

Legend:
mice [1] = conditions: cited from earlier work
HIV-1BAL = HIV-1BAL replication (p24 ELISA) in human PBMC-derived monocytes pretreated 24 hours; format: cell-based; conditions: 1000, 100 and 10 ng/ml for 24 hours; 19 days after infection; FIG. 5
Procedure: To investigate the utility of the aforementioned findings, we investigated whether commercially available synthetic lipid IVA (ICN Inc.) suppressed the replication of HIV-1BAL in human PBMC-derived monocytes. Therefore, PBMCs were obtained as outlined in Section 6, see above, and placed into 12 well culture flat-bottom plate and incubated in CM (see example 1) for 12 days at 37° C. in 5% Co2. Non-adherent cells were removed and the cells were given fresh media every 2 days. After 6 days, the adherent PBMCs were treated with synthetic lipid IVA at 1000 ng/ml, 100 ng/ml and 10 ng/ml for 24 hours. The treated cells were subsequently infected with 0.200 ng of HIV-1BAL (Cocchi et al, supra) for 2 hours, washed twice and incubated for a further 19 days. Culture supernatants were then collected and the level of p24 in these supernatants was measured by ELISA (R&D Systems).
PBMC-derived monocytes were obtained as outlined in Section 8, see above. […] The treated cells were subsequently infected with 0.200 ng of HIV-1BAL (Cocchi et al., supra) for 2 hours, washed twice and incubated for a further 19 days. Culture supernatants were then collected and the level of p24 in these supernatants was measured by ELISA (R&D Systems).

human PBMCs [2] = assay: LPS antagonist test: TNFα from human PBMCs stimulated with W3110 LPS mixed with antagonist; format: cell-based; conditions: 1 μg/ml mixed with W3110 LPS 10 ng/ml; 8 hr
Procedure: Quantitation of TNFα, IL-1β, IL-6, MIP-1α and MIP-1β in these culture supernatants was achieved by capture ELISA (R&D Systems).
W3110 LPS (also cultured at 37° C.) from 1 ng/ml to 100 ng/ml alone and W3110 LPS (10 ng/ml) mixed with synthetic lipid IVA (1 μg/ml) were used as controls.

human PBMCs [3] = assay: human PBMC activation assay: proinflammatory cytokines (TNFα, IL-1β, IL-6) in supernatants by capture ELISA; format: cell-based; conditions: 1 μg/ml; 8 hr
Procedure: 50 ml of whole blood is mixed with an equal volume of RPMI (Life Technologies) and PBMCs are isolated by density gradient using lymphocyte separation medium according to the manufacturer's directions (Organon). The PBMCs are washed twice with RPMI then resuspended in 6 ml of ice cold sterile water and placed on ice for 30 sec to lyse the erythrocytes. The osmolarity is adjusted by adding 2 ml of ice cold 3.5% (w/v) NaCl; the PBMCs are harvested by centrifugation, washed with RPMI and resuspended in complete medium (CM; RPMI containing pyruvate, glutamine, PenStrep, and 10% endotoxin-free human AB serum (Life Technologies) at a density of 6×10^6 PBMCs/ml. CM containing the preparations to be assayed are placed into duplicate wells of a 96-well flat bottom culture late (Costar) at double the target final concentration. An equal volume of CM containing the PBMCs then is added to these wells and the culture plates are incubated at 37° C. in 5% CO2 for 8 hr. The supernatants are then removed and stored at 70° C. Quantitation of TNFα, IL-1β, IL-6, MIP-1α, MIP-1β and RANTES in these culture supernatants is achieved by capture ELISA (R&D Systems).

human PBMCs [4] = assay: β chemokine (MIP-1α, MIP-1β, RANTES) secretion from human PBMCs, dose and time course, capture ELISA; format: cell-based
mice [5] = conditions: cited from earlier work; remark: listed apart in the source
HIV-1 [6] = conditions: alone; cited from earlier work
HIV-1 [7] = conditions: AIDS patients; cited from earlier work

CCCCCCCCCCC[C@@H](O)CC(=O)N[C@H]1[C@H](OC[C@H]2O[C@H](OP(=O)(O)O)[C@H](NC(=O)C[C@H](O)CCCCCCCCCCC)[C@@H](OC(=O)C[C@H](O)CCCCCCCCCCC)[C@@H]2O)O[C@H](CO)[C@@H](OP(=O)(O)O)[C@@H]1OC(=O)C[C@H](O)CCCCCCCCCCC [Lipid IVA]
pyrogenicity / toxicity in mice (mice [1]): displays similar toxicity of that of lipid A in mice | replication of HIV-1BAL (p24) in PBMC-derived monocytes (HIV-1BAL): suppresses the replication of HIV-1^BAL in a dose-dependent manner | TNFα (human PBMCs [2]): <30 pg/mL | IL-1β in human PBMC culture supernatants after stimulation with LPS (human PBMCs [3]): 13 ± 1 pg/mL | IL-6 in human PBMC culture supernatants after stimulation with LPS (human PBMCs [3]): 7581 ± 20 pg/mL | induction of β chemokines (human PBMCs [4]): without Inducing Measurable Levels of β Chemokines

R. sphaeroides lipid A [RSLA]
LPS induced lethality (mice [5]): prevents LPS induced lethality in mice

CCCCCC/C=C/CCCCCC(=O)O[C@H](CCCCCCCCCCC)CC(=O)NC1C(OCC2OC(OP(=O)(O)O)C(NC(=O)CC(=O)CCCCCCCCCCC)C(OC(=O)C[C@H](O)CCCCCCC)C2O)OC(CO)C(OP(=O)(O)O)C1OC(=O)C[C@H](O)CCCCCCC (stereo partly drawn) [RsDPLA, R. sphaeroides diphosphoryl lipid A]
level of RANTES after stimulation (human PBMCs [4]; FIG. 3): not significantly elevated | time of peak production of MIP-1α and MIP-1β after stimulation (human PBMCs [4]; supernatants at 8, 16, 24, 48 hr, FIG. 3): 24 h | MIP-1α secretion (human PBMCs [4]; various doses, FIG. 2): stimulated the secretion of MIP-1α and MIP-1β in a dose-dependent manner | MIP-1β secretion (human PBMCs [4]; various doses, FIG. 2): stimulated the secretion of MIP-1α and MIP-1β in a dose-dependent manner

2,3-diacyl-glucosamine-1-phosphate [lipid X]
pyrogenicity / toxicity in mice (mice [1]): non-pyrogenic in mice

Cc1cn([C@H]2C[C@H](N=[N+]=[N-])[C@@H](CO)O2)c(=O)[nH]c1=O [AZT, 3′-azido-2′,3′-dideoxythymidine]
effect on viral load (HIV-1 [6]): about 1 log reduction

CC(C)c1nc(CN(C)C(=O)N[C@H](C(=O)N[C@@H](Cc2ccccc2)C[C@H](O)[C@H](Cc2ccccc2)NC(=O)OCc2cncs2)C(C)C)cs1 [ABT-538]
CD4 lymphocyte counts (HIV-1 [7]): CD4 lymphocyte counts to rise substantially | plasma HIV-1 levels (HIV-1 [7]): causes plasma HIV-1 levels to decrease exponentially
